The source of these data is US20100255020A1, “METHOD FOR INDUCING CYTOTOXIC T-CELLS, CYTOTOXIC T-CELL INDUCERS, AND PHARMACEUTICAL COMPOSITIONS AND VACCINES EMPLOYING THEM” (NEC CORPORATION, priority 2007, published 2010).

The term Kd denotes a measure of binding affinity in units of concentration.

One assay has as its target HLA-A*0201 molecule (Homo sapiens, UniProt P04439, D140Y/D185E/D98H/E176V/E277Q/G131W/G231S/I119V/I121R/I166T/I218V/L300P/L318F/N151K/N90K/P208A/P217A/Q86G/Q94H/R138H/R169H/T345S). The assay is described as follows: Peptide binding to HLA-A*0201 molecule on JY cells (flow cytometry, Kd). Conditions: HLA-A*0201, JY cells; read-out: Binding assay data (−log Kd) (converted). How it is done:
The ability of a peptide to bind to an HLA-A*0201 molecule, which is a product of the HLA-A*0201 gene, was measured using strain JY cells expressing the HLA-A*0201 molecule.
JY cells were first exposed to acidic conditions at a pH of 3.8 for 30 seconds, thus dissociating and removing a β2m light chain and an endogenous peptide, which were noncovalently associated with the HLA-A* 0201 molecule. After neutralization, a reconstitution experiment was carried out.
The above-mentioned JY cells and the purified […] were added to serial dilutions of peptide for which the binding ability needs to be measured, and incubation was carried out on ice for 4 hours. HLA-A*0201 molecules that had reassociated up to this time point were stained using the fluorescently-labeled monoclonal antibody BB7.2, a conformation dependent monoclonal Ab specific for an assembled form of HLA-A*0201 molecule.
Subsequently, the amount of fluorescence per cell was measured using a flow cytometer and a dissociation constant Kd value was calculated by a method published in the literature (Udaka et al., Immunogenetics, 51, 816-828, 2000).

The target in a further assay is HLA-A*2402 molecule (Homo sapiens, UniProt P04439, D101N/D140Y/D185E/E176V/E190D/F33S/G103R/G107R/I119L/I121M/I306V/K335N/L105A/L180Q/L300P/N151K/N90K/Q86E/Q94H/R106L/R138H/R89G/T104I/T345S/V100E/W191G/Y123F). The assay is described as follows: Peptide binding to HLA-A*2402 molecule on C1R-A24 cells (flow cytometry, Kd). The following applies: HLA-A*2402, C1R-A24 cells; read-out: Binding assay data (−log Kd) (converted). How it is done:
The ability of a peptide to bind to an HLA-A*2402 molecule, which is a product of the HLA-A*2402 gene, was measured using C1R-A24 cells expressing the HLA-A*2402 molecule (cells generated by Professor Masafumi Takiguchi, Kumamoto University being supplied with permission by Associate Professor Masaki Yasukawa, Ehime University).
C1R-A24 cells were first exposed to acidic conditions at a pH of 3.3 for 30 seconds, thus dissociating and removing a β2m light chain, which is associated with HLA class I molecules in common, and an endogenous peptide originally bound to the HLA-A*2402 molecule. After neutralization, purified β2m was added to C1R-A24 cells, the obtained product was added to serial dilutions of a peptide, and incubated on ice for 4 hours. […]
Subsequently, the number of MHC-pep complexes per C1R-A24 cell (proportional to the intensity of fluorescence of the above-mentioned fluorescent antibody) was quantitatively measured using a FACScan fluorescence-activated flow cytometer (Becton Dickinson Biosciences). A dissociation constant Kd value between the HLA-A*2402 molecule and the peptide was calculated from the average intensity of fluorescence per cell by a method published in the literature (Udaka et al., Immunogenetics, 51, 816-828, 2000).
On the technique in general: In flow cytometry, cells or beads pass a laser one at a time.

Another assay addresses T1, HLA-A*0206 molecule (Homo sapiens, UniProt P04439, D140Y/D185E/D98H/E176V/E277Q/F33Y/G131W/G231S/I119V/I121R/I166T/I218V/L300P/L318F/N151K/N90K/P208A/P217A/Q86G/Q94H/R138H/R169H/T345S).
T1 construct: expressed in transfected cells; host or cells: RA2.6 (mouse TAP-deficient RMAS cells transfected with pMKITneo bearing HLA-A*0206 cDNA)
The experiment in a line: Peptide binding to HLA-A*0206 molecule on RA2.6 cells (flow cytometry, Kd). The following applies: HLA-A*0206, RA2.6 cells; read-out: Binding assay data (−log Kd) (converted). The protocol: The ability of a peptide to bind to an HLA-A*0206 molecule, which is a product of the HLA-A*0206 gene, was measured using RA2.6 cells (cell line newly generated in Kochi University), wherein cDNA of the HLA-A*0206 gene is introduced into RMAS, which is a mouse TAP (transporter associated with antigen processing)-deficient cell line.
RA2.6 cells were first cultured overnight at 26° C., during this incubation HLA-A*0206 molecules devoid of bound peptide accumulated. Serial dilutions of peptide were added to these cells and peptide binding was carried out at room temperature for 30 minutes.
Subsequently, culture was carried out at 37° C. for 3.5 hours, during this incubation empty HLA-A*0206 molecules to which no peptide was bound were denatured, and the tertiary structure was lost.
The cells were stained by adding thereto fluorescently-labeled monoclonal antibody BB7.2, which specifically recognizes the peptide-bound HLA-A*0206 molecule, and incubating on ice for 20 minutes.
Subsequently, the amount of fluorescence per cell was measured using a flow cytometer, and a dissociation constant Kd value was calculated by a method published in the literature (Udaka et al., Immunogenetics, 51, 816-828, 2000).

Assay [1] deals with peptide-loaded target cells (C1R-A24, RA24, T2). The assay is described as follows: 51Cr release assay of PBMC killing activity against peptide-loaded target cells. The assay is classed as cell-based, human. The protocol:
Target cells were labeled with ^51Cr and loaded with HLA-binding peptide of interest. 5,000 or 10,000 cells/well of target cells were placed in 96-well U-bottom plate, and then, PBMCs having been stimulated twice in vitro were added thereto as a responder. Cells were incubated at 37° C. for 5 hours and ^51Cr released from the damaged cells during the incubation was measured, and % specific lysis was calculated. As target cells C1R-A24 or RA24 cells were used as a target when reactivity to HLA-A*2402 binding peptides were examined, and T2 cells were used as a target and incubation was carried out for 2 hours after addition of responder cells. Percent specific lysis was calculated as follows. % specific lysis=(test release-spontaneous release)/(total release-spontaneous release)×100.

Assay [2] concerns HLA-A*2402 positive cell lines that express WT1 naturally (KAZZ, KCL22, KH88, MEG01). The experiment in a line: Reactivity of WT1 peptide-specific cell lines toward tumor cells (IFN-γ ELISPOT). Format: cell-based, human. Conditions: cell lines established from HLA-A*2402 positive patients, FIG. 5. The source says:
Reactions of cell lines established from different patients are arranged in a bar graph.

In another assay the test system is malignant tumors. The assay is described as follows: Peptide immunotherapy of patients, tumor response by RECIST criteria (CT/MRI). The assay is classed as in vivo, human. The arrangement: key to RECIST, single lung metastasis / RECIST, total sum of longest diameters of 10 metastatic target lesions / RECIST, pubic bone metastatic tumor / RECIST determination 3 months after starting W10 peptide therapy: CR: all target lesions have disappeared; PR: the sum of the longest diameters of the target lesions decreases by at least 30%; PD: the sum of the longest diameters of the target lesions increases by at least 20%; SD: the change of tumr size is between PR or PD. The protocol:
Among 18 patients, 3 people are illustrated in the style of case reports. […] The mixture was prepared immediately prior to administration. When W10 peptide was administered without petussis vaccine in the safety test, W10 peptide solution was divided into 4 equal portions and injected intradermally at 4 locations in the same manner. A method to measure the diameter of a tumor and a method to analyze peptide-specific T-cells using an HLA-A24 tetramer by flow cytometry are described below.
The international RECIST criteria referred to here is an evaluation standard described in Theresse, P. et al., J Natl Cancer Inst. 2000, 92, 205-216. When there is confirmation by helical CT or MRI that all target lesions have disappeared this is defined as CR (complete response), when the sum of the longest diameters of the target lesions decreases by at least 30% this is defined as PR (partial response), when the sum of the longest diameters of the target lesions increases by at least 20% this is defined as PD (progressive disease), and when the change of tumr size is between PR or PD this is defined as SD (stable disease). However, regardless of the presence or absence of a change in the target lesions, when even one new lesion appears this is defined as PD.
Based on the above-mentioned international RECIST criteria, which is used for evaluation of anticancer drugs, all measurable tumors were selected as target tumors, and change in the SLD of the tumors over the course of the therapy was monitored. In addition, number of all the tumors was counted, regardless of the size of a tumor, every time diagnostic imaging was carried out in order to lookout for new lesions. Diagnostic imaging was carried out in principle once a month by helical CT or MRI. If even one new metastasis appeared, regardless of the change in the primary lesion, it was judged as PD.
Clinical responses were evaluated according to the aforementioned international RECIST criteria for 18 patients who had been treated by immunotherapy using W10+Wc for at least 3 months and one week. Eight cased out of 18 patients were judged as SD, 10 cased were PD. […] In reports on peptide immunotherapy so far, the tumor control rate was limited to a few % up to ten or so % worldwide (Reference Documents 1 to 4). Compared with these already reported cases, this is a good reaction.

Setting [3] is: HLA-A*2402 binding peptides, FIG. 9a and b.

Where no end group is shown, it is not given here.

With RVPGVAPTL [W302], the Kd on HLA-A*0201 molecule is 0.389 µM; at HLA-A*2402 molecule, 0.0214 µM; on HLA-A*0206 molecule, 0.245 µM. In addition, the “Peptide-reactive cytolytic cells in PBMCs of patients” value in assay [1] (HLA-A*0201 binding peptides, T2 targets) is recorded as “contain cytolytic cells that recognize”; in assay [1] (setting [3]) it was “cytolytic cells include those reactive”. For the same sequence, the “Reactivity of peptide-dependent cell line toward WT1-expressing cell lines compared with C1R-A24” value in assay [2] is listed as “tends to be higher although differences are small”.
GVFRGIQDV [W292]: the Kd on HLA-A*0206 molecule is 0.331 µM.
Turning to “CYTWNQMNL (listed as Homo sapiens) [235Y, reference compound]”, in assay [1] (setting [3]), the “Peptide-reactive cytolytic cells in PBMCs of patients” value is “cytolytic cells include those reactive”. For the same sequence, the “Reactivity of peptide-dependent cell line toward WT1-expressing cell lines compared with C1R-A24” value in assay [2] was “tends to be higher although differences are small”. Moreover, in the assay on malignant tumors (patient KB07-005, prostate cancer, 235Y from December 2006), the “Effect of immunotherapy on tumor” value is “no effect”. Moreover, the “Primary tumor by MRI” value in the assay with malignant tumors (patient KB07-006, 3 mg 235Y emulsified with Montanide, weekly intradermal, 4th week) is listed as “apparent reduction of the primary tumor”. Also, the “RECIST, single lung metastasis” value in the assay with malignant tumors (patient KB07-006, 235Y immunization for 10 months) is given as “SD”. In addition, the “Primary tumor on continued immunization” value in the assay on malignant tumors (patient KB07-006, 235Y weekly, no recurrence at three and a half years) is “disappeared”.
